Test results as given in PubChem BioAssay (NCI).
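Test compounds were applied to cells in 96-well plates for 48 hours at 5 doses. Abbreviation: GI50, concentration required for 50% inhibition of growth. TGI marks complete inhibition of growth.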

Key:
Assay in all cases: growth of human tumour cells (NCI), 48 h
CAKI-1 renal = system: CAKI-1 renal
HCC-2998 colon = system: HCC-2998 colon
K-562 leukemia = system: K-562 leukemia
MALME-3M melanoma = system: MALME-3M melanoma
MCF7 breast = system: MCF7 breast
NCI-H23 lung = system: NCI-H23 lung
NCI-H522 lung = system: NCI-H522 lung
OVCAR-5 ovarian = system: OVCAR-5 ovarian
SK-MEL-28 melanoma = system: SK-MEL-28 melanoma
SN12C renal = system: SN12C renal

| Compound | GI50 (CAKI-1 renal) [µM] | TGI (CAKI-1 renal) [µM] | GI50 (HCC-2998 colon) [µM] | TGI (HCC-2998 colon) [µM] | GI50 (K-562 leukemia) [µM] | TGI (K-562 leukemia) [µM] | GI50 (MALME-3M melanoma) [µM] | TGI (MALME-3M melanoma) [µM] | GI50 (MCF7 breast) [µM] | TGI (MCF7 breast) [µM] | GI50 (NCI-H23 lung) [µM] | TGI (NCI-H23 lung) [µM] | GI50 (NCI-H522 lung) [µM] | GI50 (OVCAR-5 ovarian) [µM] | TGI (OVCAR-5 ovarian) [µM] | GI50 (SK-MEL-28 melanoma) [µM] | TGI (SK-MEL-28 melanoma) [µM] | GI50 (SN12C renal) [µM] | TGI (SN12C renal) [µM] | TGI (NCI-H522 lung) [µM] |
| --- | --- | --- | --- | --- | --- | --- | --- | --- | --- | --- | --- | --- | --- | --- | --- | --- | --- | --- | --- | --- |
| COC(=O)c1cc(-c2ccccc2)[nH]c1N/N=C/c1c(Cl)cccc1Cl | 0.354 | 4.39 | 0.363 | 23.4 | 0.729 | > 100 | 0.34 | 6.67 | 0.266 | 4.85 | 0.438 | 15.4 | 0.26 | 0.732 | 16.7 | 0.535 | 17.4 | 0.518 | > 36.6 | – |
| Oc1c(C(Nc2ccccc2Br)c2ccccc2)ccc2cccnc12 (centres undefined) | 1.36 | 54.3 | 2.19 | 97.9 | 2.3 | > 100 | 4.42 | 29.2 | 1.56 | 65.1 | 3.96 | 26.9 | 2.39 | 5.34 | 51.7 | 2.46 | 14.9 | 2.68 | 35.1 | 16.6 |
| COc1ccc2c(c1)[n+](=O)c(C(=O)c1cccs1)c(C(F)(F)F)n2[O-] | 2.87 | 11.7 | 4.72 | 22.7 | 2.56 | > 50 | – | – | 4.58 | 23.7 | 2.88 | 25.8 | 2 | 4.81 | > 50 | 16.3 | > 50 | 2.18 | 10.4 | 12.8 |
| CCCCC(SC(=S)N1CCCC1)C(=O)Nc1nc(CC(=O)OCC)cs1 (centres undefined) | > 100 | > 100 | 99.5 | > 100 | 15.6 | > 100 | > 100 | > 100 | 1.25 | > 100 | – | – | 6.87 | 37.2 | > 100 | 67.4 | > 100 | 85.2 | > 100 | > 100 |
| N#Cc1nc(-c2ccc(F)cc2)oc1S(=O)(=O)N1CCCCC1 | 1.66 | 3.03 | 1.8 | 3.46 | 2.43 | > 100 | 1.69 | 3.37 | 1.69 | 3.82 | 2.14 | 4.92 | 0.927 | 1.71 | 3.32 | 1.75 | 3.28 | 1.65 | 3.11 | 3.1 |
| O=[N+]([O-])c1cc[n+]([O-])c2ccccc12 | 0.307 | 0.937 | 0.347 | 0.8 | 0.26 | 2.07 | 0.147 | 1.12 | 0.047 | 2.2 | 0.328 | 1.56 | 0.214 | 2.42 | 6.1 | 1.24 | 2.64 | 0.244 | 1.13 | 0.754 |
| [2H]C([2H])([2H])NC(=O)c1nnc(NC(=O)C2CC2)cc1Nc1cccc(-c2ncn(C)n2)c1OC | 4.52 | 71.6 | 96.3 | > 100 | 31.2 | > 100 | 98 | > 100 | 92.9 | > 100 | 91.9 | > 100 | 23 | > 100 | > 100 | > 100 | > 100 | 34.5 | > 100 | > 100 |
| CO/N=C(\COc1ccc2c(=O)c3ccccc3oc2c1)c1ccccc1 | 1.19 | 4.89 | – | – | 72.1 | > 100 | 19.1 | 48.3 | 37.9 | > 100 | > 100 | > 100 | 33.4 | 38.4 | > 100 | > 100 | > 100 | 35.1 | > 100 | > 100 |
| c1ccc(-c2nn3c(c2-c2ccnc4cc(OCCN5CCOCC5)ccc24)CCC3)nc1 | 45.6 | > 100 | > 100 | > 100 | 30.3 | > 100 | 90.3 | > 100 | 12.9 | > 100 | > 80.6 | > 100 | 44.8 | 72.1 | > 100 | > 100 | > 100 | 50.4 | > 100 | > 100 |
| OCCCCC#Cc1ccccc1C#Cc1ccc(O)cc1 | 15.7 | 30.3 | 15.4 | 30.4 | 20.4 | 45 | 20.9 | 43 | 17.4 | 49.2 | 14.3 | 28.7 | 13.8 | 16.5 | 35.2 | 14.2 | 27.8 | 18.8 | 34.8 | 28.8 |
| COc1cc(/C=C/c2ccc(C)cc2)cc(OC)c1OC | – | > 55.2 | – | – | – | > 100 | – | 10.5 | – | 45.3 | – | 9.16 | – | – | 21.9 | – | 17.7 | – | 30.1 | 5.7 |
| Cc1ccc(/C=C(\C#N)c2cc3ccccc3n2C)cc1 | 0.406 | > 100 | 0.484 | > 100 | 0.153 | > 100 | – | – | 0.305 | > 100 | 0.541 | > 100 | 0.269 | 0.632 | > 100 | > 100 | > 100 | 0.614 | > 100 | 16.2 |
| Cc1ccc(S(=O)(=O)Oc2ccc3c4c(c(=O)oc3c2)CCCCCC4)cc1 | – | – | > 100 | > 100 | 3.88 | > 100 | > 100 | > 100 | > 100 | > 100 | > 100 | > 100 | > 100 | > 100 | > 100 | > 100 | > 100 | > 100 | > 100 | > 100 |
| O=[N+]([O-])c1cccc(/C=N/NC2=CS(=O)(=O)C=C2)c1 | – | > 100 | – | – | – | > 100 | – | > 100 | – | > 100 | – | > 100 | – | – | > 100 | – | > 100 | – | > 100 | > 100 |
| COc1ccc2c(c1)/C(=C\c1ccncc1)C(=O)N2 | 3.64 | 15.9 | 19 | > 100 | 3.41 | 9.56 | – | – | 8.68 | > 100 | 12.3 | 43.5 | 4 | 23 | 49.2 | – | – | 10.3 | 23.7 | 9.18 |
| COc1ccc(-c2c(C)c(C(=O)O)nc(-c3ccc4c(O)c(OC)c5c(c4n3)=NC(C)(C)N=5)c2N)c(O)c1OC | – | – | – | 35.7 | – | 47.9 | – | 17.7 | – | > 100 | – | 6.95 | – | – | > 100 | – | 59.8 | – | 41.7 | 24.5 |
| CN(C)Cc1ccc(-c2cc3onc(-c4ccccc4)c3c(=O)n2C)cc1 | – | > 100 | – | – | – | 74.2 | – | 72.5 | – | > 100 | – | > 100 | – | – | > 100 | – | 41.2 | – | > 100 | 39.5 |
| O=S(=O)(NC1CCCCC1)c1ccc2c(c1)OCCOCCOCCOCCO2 | – | > 100 | – | > 100 | – | > 100 | – | > 100 | – | > 100 | – | > 100 | – | – | – | – | > 100 | – | > 100 | > 100 |
| CNC(=O)NCC1OC(n2cnc3c(NC(=O)Nc4ccccc4)ncnc32)C(O[Si](C)(C)C(C)(C)C)C1O[Si](C)(C)C(C)(C)C (centres undefined) | 2.7 | 7.93 | 2.02 | 3.75 | – | – | 2.98 | 9.84 | 2.69 | 19.4 | 3.17 | 9.07 | 2.39 | 5.24 | 25.2 | – | – | 1.81 | 3.38 | 7.14 |
| CN1C(=O)c2ccc3ccccc3c2C1=O | – | > 100 | – | > 100 | – | > 100 | – | – | – | > 100 | – | > 100 | – | – | > 100 | – | > 100 | – | > 100 | > 100 |
| CCCCCCCCCCCC1=NC(C)(C)CN1C(C)(C)CO | 1.73 | 4.37 | 1.75 | 3.24 | 1.84 | 4.38 | – | – | 2.48 | 5.64 | 2.11 | 4.67 | 1.84 | 3.61 | 15 | 1.83 | 3.41 | 4.31 | 17.5 | 4.02 |
| Cc1cn2c(/C=C3/C(=O)Nc4c3ccc3ccccc43)c(C(F)(F)F)nc2s1 | 1.76 | > 100 | 3.23 | > 100 | 0.483 | 14.1 | – | – | 0.449 | > 100 | 2.09 | > 100 | 0.584 | 9.99 | > 100 | 2.7 | > 100 | 4.75 | > 100 | > 100 |
| O=c1c2c([nH]c3nccn13)CCC2 | – | > 10 | – | – | – | > 10 | – | > 10 | – | > 10 | – | > 10 | – | – | > 10 | – | > 10 | – | > 10 | – |
